According to article PMC6600469, “Synthesis and Biological Evaluation of NH2-Sulfonyl Oseltamivir Analogues as Influenza Neuraminidase Inhibitors” (Molecules, 2019):

Tests used:
[1] = Metabolic stability in human liver microsomes in vitro; details: for Remaining (T = 60 min): human liver microsomes 0.5 mg/mL, 37 °C, 60 min incubation; for half-life: human, liver microsomes
[2] = biological target: H5N1 neuraminidase (A/Anhui/2005) (Influenza A virus (H5N1), UniProt A0A0C5AGB3); test: biochemical; assay type: biochemical, influenza A H5N1 (A/Anhui/2005); details: for inhibition at 10 µM / inhibition at 100 µM: read-out: inhibition rate against NA from H5N1 subtype
[3] = biological target: neuraminidase; details: cited from earlier work
[4] = test system: NAs from H5N1 (A/Chicken/China/1220/2012); details: read-out: IC50 against NAs from H5N1; cited from earlier work
[5] = test system: mutant NAs; details: cited from earlier work

C[C@]12CC[C@H]3[C@@H](CCC4=CC(=O)CC[C@@]43C)[C@@H]1CC[C@@H]2O [Testosterone, testosterone]
Remaining (T = 60 min) [1]: 3.8%
half-life [1]: 12.5 min

CCCCS(=O)(=O)N[C@H]1CC(C(=O)O)=C[C@@H](OC(CC)CC)[C@@H]1NC(C)=O [4d, (3R, 4R, 5S)-4-acetamido-5-(n-butylsulfonyl)amino-3-(pentan-3-yloxy) cyclohex-1-enecarboxylic acid]
inhibition at 10 µM [2]: 30.3%
inhibition at 100 µM [2]: 53.5%
melting point: 183.3 to 184.4 °C

CCC(CC)O[C@@H]1CC(C(=O)O)=C[C@H](n2cc(C(O)CC)nn2)[C@H]1NC(C)=O (stereo partly shown) [C]
Ki [3]: 72 nM

O=C(O)Cc1ccccc1Nc1c(Cl)cccc1Cl [Diclofenac, diclofenac]
Remaining (T = 60 min) [1]: 1.1%
half-life [1]: 9.2 min

CCC(CC)O[C@@H]1C=C(C(=O)O)C[C@H](NS(=O)(=O)c2ccc(NC(C)=O)cc2)[C@H]1NC(C)=O [4g, (3R, 4R, 5S)-4-acetamido-5-((4-(acetamido)pheny)sulfonyl)amino-3-(pentan-3-yloxy)cyclohex-1-enecarboxylic acid]
inhibition rate against NA from H5N1 subtype ([2]; 100 µM): little inhibition
melting point: 236.7 to 238.6 °C

CCC(CC)O[C@@H]1C=C(C(=O)O)C[C@H](NS(=O)(=O)CC)[C@H]1NC(C)=O [4b, (3R, 4R, 5S)-4-acetamido-5-(ethylsulfonyl)amino-3-(pentan-3-yloxy)cyclohex-1-enecarboxylic acid]
inhibition at 10 µM [2]: 50.3%
inhibition at 100 µM [2]: 85.1%
melting point: 187.7 to 190 °C

CCC(CC)O[C@@H]1C=C(C(=O)O)C[C@H](NS(=O)(=O)c2ccccc2[N+](=O)[O-])[C@H]1NC(C)=O [4i, (3R, 4R, 5S)-4-acetamido-5-((2-nitrophenyl)sulfonyl)amino-3-(pentan-3-yloxy)cyclohex-1-enecarboxylic acid]
inhibition at 10 µM [2]: 32%
inhibition at 100 µM [2]: 70.1%

CCC(CC)O[C@@H]1C=C(C(=O)O)C[C@H](NS(=O)(=O)c2ccccc2N)[C@H]1NC(C)=O [6i, (3R, 4R, 5S)-4-acetamido-5-((2-aminophenyl)sulfonyl)amino-3-(pentan-3-yloxy)cyclohex-1-enecarboxylic acid]
inhibition at 10 µM [2]: 63.8%
inhibition at 100 µM [2]: 86.6%
melting point: 161.8 to 164 °C

CCC(CC)O[C@@H]1C=C(C(=O)O)C[C@H](N)[C@H]1NC(C)=O [OC, oseltamivir carboxylate, reference compound]
inhibition rate against NA from H5N1 subtype ([2]; 10 µM): 91.0%
inhibition rate against NA from H5N1 subtype ([2]; 100 µM): 95.0%

CCC(CC)O[C@@H]1C=C(C(=O)O)C[C@H](NS(C)(=O)=O)[C@H]1NC(C)=O [4a, (3R, 4R, 5S)-4-acetamido-5-(methylsulfonyl)amino-3-(pentan-3-yloxy) cyclohex-1-enecarboxylic acid]
inhibition at 10 µM [2]: 73.9%
inhibition at 100 µM [2]: 91.8%
Remaining (T = 60 min) [1]: 101.6%
half-life [1]: > 145 min

CCC(CC)O[C@@H]1C=C(C(=O)O)C[C@H](NS(=O)(=O)c2ccc([N+](=O)[O-])cc2)[C@H]1NC(C)=O [4k, (3R, 4R, 5S)-4-acetamido-5-((4-nitrophenyl)sulfonyl)amino-3-(pentan-3-yloxy)cyclohex-1-enecarboxylic acid]
inhibition at 10 µM [2]: 0.5%
inhibition at 100 µM [2]: 38.9%
melting point: 187.4 to 189.2 °C

CCC(CC)O[C@@H]1C=C(C(=O)O)C[C@H](NCc2ccc(-c3cccs3)cc2)[C@H]1NC(C)=O [B]
IC50 [4]: 2.1 nM

CCC(CC)O[C@@H]1C=C(C(=O)O)C[C@H](NS(=O)(=O)C(F)(F)F)[C@H]1NC(C)=O [4f, (3R, 4R, 5S)-4-acetamido-5-((trifluoromethyl)sulfonyl)amino-3-(pentan-3-yloxy)cyclohex-1-enecarboxylic acid]
inhibition at 10 µM [2]: 24.8%
inhibition at 100 µM [2]: 49.7%
melting point: 193.1 to 195.4 °C

CCC(CC)O[C@@H]1C=C(C(=O)O)C[C@H](NS(=O)(=O)c2cccc([N+](=O)[O-])c2)[C@H]1NC(C)=O [4j, (3R, 4R, 5S)-4-acetamido-5-((3-nitrophenyl)sulfonyl)amino-3-(pentan-3-yloxy)cyclohex-1-enecarboxylic acid]
inhibition at 10 µM [2]: 20.3%
inhibition at 100 µM [2]: 33.8%
melting point: 114.3 to 115.9 °C

CCC(CC)O[C@@H]1C=C(C(=O)O)C[C@H](NS(=O)(=O)c2cccc(N)c2)[C@H]1NC(C)=O [6j, (3R, 4R, 5S)-4-acetamido-5-((3-aminophenyl)sulfonyl)amino-3-(pentan-3-yloxy)cyclohex-1-enecarboxylic acid]
inhibition at 10 µM [2]: 37.3%
inhibition at 100 µM [2]: 52.7%
melting point: 177.4 to 178.1 °C

CCC(CC)O[C@@H]1C=C(C(=O)O)C[C@H](NS(=O)(=O)c2ccc(C(F)(F)F)cc2)[C@H]1NC(C)=O [4h, (3R, 4R, 5S)-4-acetamido-5-((4-(trifluoromethyl)phenyl)sulfonyl)amino-3-(pentan-3-yloxy)cyclohex-1-enecarboxylic acid]
inhibition at 10 µM [2]: 40.4%
inhibition at 100 µM [2]: 79.2%

CCCS(=O)(=O)N[C@H]1CC(C(=O)O)=C[C@@H](OC(CC)CC)[C@@H]1NC(C)=O [4c, (3R, 4R, 5S)-4-acetamido-5-(n-propylsulfonyl)amino-3-(pentan-3-yloxy)cyclohex-1-enecarboxylic acid]
inhibition at 10 µM [2]: 43.2%
inhibition at 100 µM [2]: 56.5%
melting point: 196.3 to 198.6 °C

CCCCCS(=O)(=O)N[C@H]1CC(C(=O)O)=C[C@@H](OC(CC)CC)[C@@H]1NC(C)=O [4e, (3R, 4R, 5S)-4-acetamido-5-(n-pentylsulfonyl)amino-3-(pentan-3-yloxy)cyclohex-1-enecarboxylic acid]
inhibition at 10 µM [2]: 28.5%
inhibition at 100 µM [2]: 50.5%
melting point: 179.1 to 182.8 °C

CCC(CC)O[C@@H]1C=C(C(=O)O)C[C@H](NCc2ccc(-c3ccccc3)cc2)[C@H]1NC(C)=O [A]
IC50 [4]: 1.9 nM

CCC(CC)O[C@@H]1C=C(C(=O)O)C[C@H](NS(=O)(=O)c2ccc(N)cc2)[C@H]1NC(C)=O [6k, (3R, 4R, 5S)-4-acetamido-5-((4-aminophenyl)sulfonyl)amino-3-(pentan-3-yloxy)cyclohex-1-enecarboxylic acid]
inhibition at 100 µM [2]: 12.5%
melting point: 176.7 to 181.4 °C

CCC(CC)O[C@@H]1C=C(C(=O)O)C[C@H](NC(C)=O)[C@H]1NC(C)=O [D]
inhibitory activities against mutant NAs [5]: enhanced inhibitory activities
